Test results from US8119116B2, “Therapeutics for cancer using 3-bromopyruvate and other selective inhibitors of ATP production” (John Hopkins University School of Medicine, priority 2001, dated 2012).
pIC50: −log10 of the molar value.

How the values were obtained:
[1] = test system: VX2 tumor slices; assay: Glycolysis (lactic acid formation) in VX2 tumor slices; format: cell-based, rabbit; details: for inhibition of VX2 tumor glycolysis in the limited screen: 6 mM agent, 6 mM glucose, 37° C., 5 h
Description: Glycolysis was assayed by monitoring the formation of lactic acid following the addition of glucose to a medium containing VX2 tumor slices. Specifically, freshly excised tumors were washed 3 times at 4° C. in 20 ml Chance Hess Medium containing 6.2 mM KCl, 154 mM NaCl, and 11 mM NaPi, pH 7.4. Slices, 1 g each, were then prior incubated for 30 min in a Lab-Line incubator-shaker at 37° C. in 2 ml of the same medium while shaking at 50 rpm. Glucose was then added to give a final concentration of 6 mM, after which the incubation/shaking process was continued with 0.2 ml samples being removed every 30 min for up to 2 h. These samples were subjected to centrifugation at 14,000 rpm in an Eppendorf Centrifuge (Model 5415C). Then, aliquots of the supernatant, 0.01 ml, were removed from each sample, diluted with 0.03 ml of water and subjected to lactic acid determination using the kit supplied by Sigma. The latter contains, in addition to lactic dehydrogenase and NAD+, hydrazine, and glycine buffer, pH 9.2. The mixture was incubated for 30 min at 25° C. after which the absorbance due to formation of NADH was determined at 340 nm using a Gilford Model 260 spectrophotometer. To assess the elevation of the glycolytic activity of the VX2 tumor over that of liver tissue, parallel studies were always carried out in an identical manner with 1 g liver slices derived from the host liver. Finally, in those cases where agents were tested for their capacity to inhibit glycolysis, these were introduced into the system at the prior incubation step with all subsequent steps being run in parallel with those described above for the VX2 tumor or liver alone.
The screen included the following 9 compounds: 2-deoxyglucose (2DOG), 2-fluoro-2-deoxyglucose, 6-fluoro-6-deoxyglucose, 3-O-methyl glucose, 5-thio-D-glucose-6-phosphate, L-glucose, D-xylose, D-lyxose, and 3-bromopyruvic acid (3BrPA). The screen was conducted by incubating VX2 tumor slices in a medium containing 6 mM glucose with 6 mM of each of these agents at 37° C. for 5 h. The use of 6 mM glucose in the medium was used to mimic the maximal amount of glucose that might be in the blood in a real in vivo situation.
With the above preliminary data at hand, only two of the 9 compounds screened were studied in more detail. One was 2DOG because under certain conditions it is known to inhibit glycolysis when it is phosphorylated by hexokinase to 2DOG-6-P which cannot be further metabolized. The other compound tested in more detail was 3BrPA because of its effectiveness as a glycolytic inhibitor in the preliminary screen.

[2] = test system: AS-30D hepatoma cells; assay: Hepatoma cell viability by trypan blue; format: cell-based, rat; details: 20 mM, 12 h
Description: AS-30D hepatoma cells grown in the peritoneal cavity of Sprague Dawley female rats (see Materials) were adapted to grow in tissue culture in Dulbecco's modified Eagle's medium containing 10% fetal bovine serum. Cells were maintained at 37° C. in a humidified atmosphere containing 5% CO2, and counted in a Neubauer chamber after trypan blue dye addition (cell/dye volume=1/1) by visualization under a Nikon inverted microscope.
The studies described above using the VX2 tumor model for liver cancer predict that 2DOG and 3BrPA may have the capacity to kill hepatoma cells expressing the high glycolytic/high hexokinase phenotype. […] Cell killing was assessed in these experiments by counting those cells in which trypan blue had entered.

Row | SMILES | inhibition of VX2 tumor glycolysis in the limited screen [1] | also measured
1 | O=C[C@H](F)[C@@H](O)[C@H](O)[C@H](O)CO [2-fluoro-2-deoxyglucose] | ineffective | 
2 | O=CC[C@@H](O)[C@H](O)[C@H](O)CO [2DOG, 2-deoxyglucose] | ineffective | pIC50 ([1]; Oryctolagus cuniculus, 0.5 h, VX2 tumor slices, agent prior incubated 30 min at 37° C., read-out: half maximal inhibition of glycolysis): ~1.82; concentration for maximal or complete inhibition of glycolysis ([1]; VX2 tumor slices, agent prior incubated 30 min at 37° C.): ~50 mM; maximal inhibition of glycolysis ([1]; VX2 tumor slices, at almost 50 mM): 70%; cells killed (trypan blue uptake) [2]: about 80%
3 | CO[C@@H]([C@H](O)[C@H](O)CO)[C@@H](O)C=O [3-O-methyl glucose] | ineffective | 
4 | O=C[C@H](O)[C@@H](O)[C@H](O)[C@H](S)COP(=O)(O)O [5-thio-D-glucose-6-phosphate] | ineffective | 
5 | O=C[C@H](O)[C@@H](O)[C@H](O)[C@H](O)CF [6-fluoro-6-deoxyglucose] | ineffective | 
6 | O=C[C@@H](O)[C@@H](O)[C@H](O)CO [D-lyxose] | ineffective | 
7 | O=C[C@H](O)[C@@H](O)[C@H](O)CO [D-xylose] | ineffective | 
8 | O=C[C@@H](O)[C@H](O)[C@@H](O)[C@@H](O)CO [L-glucose] | ineffective | 
